Experiments:
[1] = system: extracellular DA concentrations in the nucleus accumbens (NAcc); assay: In vivo microdialysis of PCP-induced extracellular DA in the nucleus accumbens of freely moving rats; set-up: species or system rat (Sprague-Dawley)
Source text: (§1) We explored the effects of increased endogenous GABA activity on PCP-induced extracellular DA concentrations in the prefrontal cortex (PFC) and nucleus accumbens (NAcc) of freely moving rats.
(§2) All animals were used under an IACUC-approved protocol and with strict adherence to the NIH guidelines. Adult male Sprague-Dawley rats (200-300 g, Taconic Farms), housed in the animals care facility under 12:12 light/dark conditions, were placed into 6 groups (n=3-6), anesthetized and siliconized guide cannulae were stereotactically implanted into the right NAcc (2.0 mm anterior and 1.0 mm lateral to bregms, and 7.0 mm ventral to the cortical surface) and prefrontal cortex (PFC) at least 4 days prior to study. Microdialysis probes (2.0 mm, Bioanalytical Systems, BAS, West Lafayette, Ind.) were positioned within the guide cannulae and artificial cerebrospinal fluid (ACSF, 155.0 mM […]) was administered through the probe using a CMA/100 microinfusion pump (BAS) at a flow rate of […].
Animals were placed in bowls, and probes were inserted and flushed with ACSF overnight. On the day of the study, a minimum of three samples were injected to determine baseline stability. Samples were collected for 20 min. and injected on-line (CMA/160, BAS). The average dopamine concentration of these three stable samples was defined as control (100%), and all subsequent treatment values were transformed to a percentage of that control. Upon establishing a stable baseline, the PCP was administered by intraperitoneal (i.p.) injection. The high performance liquid chromatography (HPLC) system consists of a BAS reverse-phase column (3.0μ C-18), a BAS LC-4C electrochemical transducer with a dual/glassy carbon electrode set at 650 mV, a computer that analyzes data on-line using a commercial software package (Chromograph Bioanalytical Systems), and a dual pen chart recorder. The mobile phase (flow rate 1.0 ml/min) consisted of 7.0% methanol, 50 mM sodium phosphate monobasic, 1.0 mM sodium octyl sulfate, and 0.1 mm […], pH 4.0. DA eluted at 7.5 min.
Gamma-vinyl GABA (GVG), an irreversible inhibitor of GABA-transaminase, was administered by intraperitoneal injection 2.5 hours prior to PCP (7 mg/kg). In all studies, animals were placed in the microdialysis bowls the night before the experiment and artificial cerebrospinal fluid (ACSF) was perfused through the microdialysis probes at a flow rate of 2.0 μl/min. At the end of each study, animals were sacrificed and their brains were removed and sectioned for probe placement verification.
Levels of extracellular DA were sampled from the NAcc continuously using a stereoaxically implanted probe. […]

[2] = system: extracellular DA concentrations in the prefrontal cortex (PFC); assay: In vivo microdialysis of PCP-induced extracellular DA in the prefrontal cortex of freely moving rats; set-up: species or system rat (Sprague-Dawley); conditions: p<0.01
Source text: as §1, §2
Animals were placed in bowls, and probes were inserted and flushed with ACSF overnight. On the day of the study, a minimum of three samples were injected to determine baseline stability. Samples were collected for 20 min. and injected on-line (CMA/160, BAS). […]

[3] = system: synaptic dopamine (11C-raclopride binding); assay: PET study with 11C-raclopride, GVG and PCP in primates; type: in vivo, Papio anubis baboons

Row | SMILES | attenuation of the DA response to PCP in the NAcc ([1]; GVG 150 mg/kg i.p. 2.5 hours prior to PCP (7 mg/kg)) | attenuation of the DA response to PCP in the NAcc ([1]; GVG 300 mg/kg i.p. 2.5 hours prior to PCP (7 mg/kg), p<0.01) [%] | attenuation of the DA response to PCP in the NAcc ([1]; GVG 500 mg/kg i.p. 2.5 hours prior to PCP (7 mg/kg), p<0.001) [%] | attenuation of PFC DA activity (response to PCP) ([2]; GVG pretreatment (300 mg/kg group) i.p. 2.5 hours prior to PCP (7 mg/kg)) [%] | effect on PCP-induced increases in neostriatal synaptic DA assessed by PET ([3]; primate (baboon) brain) | effect on PCP-induced diminution of 11C-raclopride binding (increase in synaptic dopamine) ([3]; prior intravenous 300 mg/kg GVG, PCP 1 mg/kg, four baboons, all cases) | increase of DA concentrations above baseline in the NAcc ([1]; PCP alone, 7 mg/kg i.p., baseline = 100%, p<0.01) [%] | increase of DA concentrations above baseline in the PFC ([2]; PCP alone, 7 mg/kg i.p., baseline = 100%) [%]
1 | C=CC(N)CCC(=O)O (racemic) [GVG, 4-amino-5-hexanoic acid] | no significant inhibition | 62 | 67 | 67 | significantly attenuated | prevented the diminution of ^11C-ralcopride binding |  | 
2 | c1ccc(C2(N3CCCCC3)CCCCC2)cc1 [PCP, Phencyclidine] |  |  |  |  |  |  | 117 | 407

Source: patent US6395783B1, “Treatment of PCP addiction and PCP addiction-related behavior” (Brookhaven Science Associates, LLC, priority 2000, dated 2002)
